# Counter-ions that a name gives are not always drawn.
# Experiments:
# [1] = Cyclic voltammetry, direct electro-oxidation on screen-printed carbon electrodes; type: physicochemical; conditions: for anodic peak Epa: first/characteristic anodic peak, carbon electrodes, Ag/AgCl reference, scan rate 0.1 V/s, 0.05M Tris-HCl pH 8.5
# Procedure: (§1) All electrochemical experiments were performed on screen-printed carbon electrodes with an Ag/AgCl reference electrode in a 3-electrode mode of operation. Cyclic Voltammetry parameters were controlled via a computational program; scan rate: 0.1 V/s, start potential: −0.5V, switch potential: 0.9V, end potential: −0.5V.
# (§2) Deionized water (resistivity 18.2MΩ cm) was used in the preparation of solutions. Bilirubin was dissolved in 0.05M sodium hydroxide to prepare 1 mM stock and gently vortexed till homogenously mixed. This stock solution was then diluted using 0.05 M Tris-HCl (pH 8.5) to the desired working concentration. […] Bromophenol blue was prepared in 0.05M Tris-HCl (pH 8.5). Conjugated bilirubin was dissolved in 0.05M Tris-HCl (pH 8.5) and mixed till homogenous. All tubes containing bilirubin were protected from light.
# Regarding the detection of unbound unconjugated bilirubin, it was diluted to a physiologically relevant concentration (100 μM) and analyzed by cyclic voltammetry.
# Human serum albumin = biological target: T1, Human serum albumin (Homo sapiens, UniProt P02768); assay: Binding to albumin and displacement of bilirubin by bromophenol blue, assessed by cyclic voltammetry; conditions: for binding affinity to albumin (in words): inferred from voltammetric results; for effect of binding to albumin on electrochemical oxidation of the ligand: mixed with albumin, cyclic voltammetry; for peak current of liberated unconjugated bilirubin (peak at 0.15V): unconjugated bilirubin + albumin + bromophenol blue
# T1 construct: purchased Sigma Aldrich, UK
# Procedure: as §1, §2
# Surfactants, caffeine, sodium benzoate and fatty acids are common solubilizing agents.
# As with unconjugated bilirubin, bromophenol blue was used a competitive binding ligand for the displacement of conjugated bilirubin.
# albumin = biological target: T2, albumin (Homo sapiens, UniProt P02768); conditions: within human plasma; cited from earlier work
# T2 construct: host or cells: human plasma
# T2 sequence (P02768 25-609): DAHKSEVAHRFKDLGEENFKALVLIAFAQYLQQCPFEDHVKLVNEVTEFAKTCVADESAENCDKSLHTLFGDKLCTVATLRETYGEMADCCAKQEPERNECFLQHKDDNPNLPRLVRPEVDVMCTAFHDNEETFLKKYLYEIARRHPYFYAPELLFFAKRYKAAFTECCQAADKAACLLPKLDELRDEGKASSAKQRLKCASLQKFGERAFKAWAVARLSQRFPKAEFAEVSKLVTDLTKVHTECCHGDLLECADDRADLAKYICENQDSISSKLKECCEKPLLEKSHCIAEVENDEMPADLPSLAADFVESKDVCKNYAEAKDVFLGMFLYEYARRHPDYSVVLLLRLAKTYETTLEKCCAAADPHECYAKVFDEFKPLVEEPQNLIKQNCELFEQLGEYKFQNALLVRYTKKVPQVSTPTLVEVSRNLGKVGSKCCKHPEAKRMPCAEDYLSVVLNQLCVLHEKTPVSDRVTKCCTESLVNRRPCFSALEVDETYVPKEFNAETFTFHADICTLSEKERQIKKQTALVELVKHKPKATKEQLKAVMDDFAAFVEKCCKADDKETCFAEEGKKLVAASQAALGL
# T1 sequence (P02768 25-609): as above
SMILES,anodic peak Epa [1] [V],"displacement of conjugated bilirubin from albumin (Human serum albumin; conjugated bilirubin, albumin, bromophenol blue at 1:1:1 ratio)","displacement of unconjugated bilirubin from albumin (Human serum albumin; equal concentration ratios of unconjugated bilirubin, albumin and bromophenol blue)",binding affinity to albumin (in words) (Human serum albumin),effect of binding to albumin on electrochemical oxidation of the ligand (Human serum albumin),peak current of liberated unconjugated bilirubin (peak at 0.15V) (Human serum albumin; bromophenol blue concentration increased threefold) [μA],peak current of liberated unconjugated bilirubin (peak at 0.15V) (Human serum albumin; bromophenol blue concentration increased two-fold) [μA],"third anodic peak ([1]; cyclic voltammetry, same set-up) [V]","secondary anodic peak ([1]; cyclic voltammetry, same set-up, for unconjugated bilirubin distinct at 50 μM and higher) [V]",unconjugated bilirubin bound to albumin (albumin)
"O=S1(=O)OC(c2cc(Br)c(O)c(Br)c2)(c2cc(Br)c(O)c(Br)c2)c2ccccc21 [bromophenol blue, 4,4′-(1,1-dioxido-3H-2,1-benzoxathiole-3,3-diyl)bis(2,6-dibromophenol)]",0.64,sufficiently displaced the conjugated bilirubin,no displacement of unconjugated bilirubin was observed,higher binding affinity,diminish the bromophenol blue peak at 0.64V,0.347,0.645,–,–,–
"C=CC1=C(C)/C(=C/c2[nH]c(Cc3[nH]c(/C=C4\NC(=O)C(C)=C4C=C)c(C)c3CCC(=O)NCCS(=O)(=O)O)c(CCC(=O)NCCS(=O)(=O)O)c2C)NC1=O [conjugated bilirubin, Bilirubin conjugated ditaurate disodium salt]",0.15,–,–,weaker than that of unbound bilirubin,hinders oxidation of bilirubin,–,–,0.44,0.3,–
"C=CC1=C(C)/C(=C/c2[nH]c(Cc3[nH]c(/C=C4\NC(=O)C(C)=C4C=C)c(C)c3CCC(=O)O)c(CCC(=O)O)c2C)NC1=O [unconjugated bilirubin, Bilirubin (mixed isomers)]",–,–,–,–,–,–,–,–,–,roughly 99.9%

# Reference: patent publication US10371707B1, “System and methods for bilirubin analysis” (Neolight LLC, priority 2017, dated 2019)
